# Values of other authors, collected in patent publication US20190021988A1, “ENHANCED TRANSDERMAL DELIVERY OF ACTIVE AGENTS” (priority 2016, published 2019).
# Test system: desmosome-induced tight junctions between corneocytes
substance,measurement,setting,value
"TD-1: skin penetrating peptide with the amino acid sequence ACSSSPSKHCG, disclosed in WO2007/035474",time until cell gaps are restored after treatment,after treatment,1 h
same,space between cells after topical application,"change from about 30 nm, in 30 minutes from topical application",about 466 nm
